Test results as given in patent US7417039B2, “Use of substituted azetidinone compounds for the treatment of sitosterolemia” (Schering Corporation, priority 2001, dated 2008).

Experiments:
[1] = tested on: plasma plant sterols (sitosterol and campesterol) and LDL-C; assay: In vivo evaluation in humans: randomized, double-blind, placebo-controlled 8-week trial in homozygous sitosterolemia; parameters: species or system human; conditions: homozygous sitosterolemia patients, 8 weeks
Method: In a randomized multicenter, double-blind, placebo-controlled, 8-week trial, 37 human patients previously diagnosed with homozygous sitosterolemia were randomized to receive Compound VIII (n=30) or placebo (n=7): • Treatment A—Compound VIII given orally as 1 dose (10 mg) per day, • Treatment B—Placebo (matching image of Compound VIII 10 mg) given orally as 1 dose per day, every morning for 8 consecutive weeks.
During the trial, subjects were instructed to maintain (as a minimum) a National Cholesterol Education Program (NCEP) Step 1 diet
Patients were instructed to maintain a diary of food intake and monitored prior to randomization, at baseline and during therapy. Results of the central diet analysis for each subject were reported as a RISCC score (Ratio of Ingested Saturated fat and Cholesterol to Calories) and as dietary components. RISCC scores indicate the potential for a diet to influence plasma lipid levels. A score ranging from 14 to 20 correlates with a NCEP step 1 diet.
Low-Density-Lipoprotein-Cholesterol (LDL-C) results were reported as direct LDL-C (plasma concentration was determined following a standard ultra centrifugation/precipitation procedure; lipid and lipoprotein analysis, see Manual of Laboratory Operations: Lipid Research Clinics Program Report. Washington, D.C.: US Department of Health, Education, and Welfare publication; 1974. NIH 75-628, vol 1, which is incorporated by reference herein or beta-quantification) and calculated LDL-C (plasma concentration; based on Freidewald equation: LDL-C=Total cholesterol minus (Triglycerides divided by 5) minus High-density-lipoprotein cholesterol (HDL-C)).
Total cholesterol and Triglycerides were determined enzymatically using a Hitachi 747 analyzer; see, Steiner P M, Freidel J, Bremner W F, Stein E A: Standardization of micromethods for plasma cholesterol, triglyceride and HDL-cholesterol with the Lipid Clinics' methodology [abstract]. J Clin Chem Clin Biochem 1981;19:850, which is incorporated by reference herein.
HDL-C was determined enzymatically after heparin and magnesium precipitation; see, Steele W B, Koehle D F, Azar M M, Blaszkowski T P, Kuba K, Dempsey M E: Enzymatic determinations of cholesterol in high density lipoprotein fractions prepared by precipitation technique. Clin Chem 1976;22:98-101, which is incorporated by reference herein.
Plasma plant sterols (sitosterol and campesterol) and LDL-C were assessed at baseline (Day 1) and at endpoint (average of Weeks 6 and 8 values). See: Salen, Gerald; Shore, Virgie; Tint, G S; Forte, T: Shefer, S; Horak, I; Horak, E; Dayal, B; Nguyen, L.; Batta, A K; Lindgren, F T; Kwiterovich, Jr, P O, “Increased sitosterol absorption, decreased removal and expanded body pools compensate for reduced cholesterol synthesis in sitosterolemia with xanthomatosis”, J Lipid Res, Vol. 30, pp 1319-30, (1989) and Lutjohann, D; Bjorkhem, I; Beil, U F, and von Bergmann, K, “Sterol absorption and sterol balance in phytosterolemia evaluated by deuterium-labeled sterols: effect of sitostanol treatment” J Lipid Res. Vol. 36:(8), pp 1763-73, (1995), each of which is incorporated by reference herein.

[2] = tested on: Sitosterol Absorption; assay: In vivo evaluation in mice: [3H]-sitosterol absorption and hepatic accumulation
Method: In vivo activity of compound VIII in mice was determined by the following procedure:
Male ApoE knockout mice, age 6 wks, were received from Jackson Laboratory along with age-matched C57BL/J. The mice were housed 5 per cage, normal light cycle, normal diet. Twenty-six mice of each variety were weighed and housed, 1 per cage, in suspended wire cages with normal light cycle, normal diet. After three days, the mice were reweighed. Based on body weight, the mice were divided into 5 groups for each type of treatment:
Control (corn oil) and Compositions including Compound VIII at 0.3, 1, 3, and 10 mg/kg of body weight per day.
Preparation of Compositions including Compound VIII based on 22 g average mouse body weight:
The mice were gavaged using a feeding needle 30 min before receiving ^14C-cholesterol (NEN, NEC 018) and ^3H-sitosterol (NEN, CUS 030T). The radioactive dose was prepared from: • 114 μL ^3H-sitosterol stock (1 μCi/μL in ethanol); • 1.425 mL ^14C-cholesterol stock (40 μCi/mL in ethanol); • 5.7 mg cholesterol, Sigma C 8667; • 5.7 mg β-sitosterol, Sigma, S 1270; • The ethanol was removed under N2; • 5.7 ml of corn oil was added, and the mixture was warmed to 60° C.; and shaken for 1 hr.
Each 0.1 ml dose contained 2 μCi ^3H-sitosterol, 0.1 mg cold (non radioactive) sitosterol; 1 μCi ^14C-cholesterol, and 0.1 mg cold (non radioactive) cholesterol. Radioactive content was verified: 5×10 μl counted in Beckman LSC (liquid […] counter). Tritiated sitosterol was used as an “unabsorbable” marker to compare to the absorption of [^14C]-cholesterol in a mouse fecal isotope ratio cholesterol absorption model.
On the 4th, 5th, and 6th days, feces were collected and stored at −20° C. in vials just before dosing with Control or Compound VIII late in the day. Termination of the experiment on the 7th day involved sacrifice by exsanguination, removal and weighing of the liver. 3×˜250 mg samples of liver were put in vials. The liver samples were digested with 1 ml of 1N NaOH at 60° overnight, neutralized with 0.1 ml 12N HCl and counted for ^14C and ^3H. The blood samples were allowed to clot at room temp for 1 hr, then centrifuged at 1000 G for 15 min. The serum was analyzed for total cholesterol (see Wako C I I; see Allain C C, Poon L S, Chan C S G, Richmond W, Fu P C. Enzymatic Determination of Total Serum Cholesterol. Clin. Chem. 1974; 20:470-475, which is incorporated by reference herein) and radioactivity (2×50 μL). Fecal samples were analyzed for radioactivity by combustion in a Packard Oxidizer followed by Beckman LSC.

[3] = 10 mg orally once daily, endpoint = average of Weeks 6 and 8

O=C1[C@H](CC[C@H](O)c2ccc(F)cc2)[C@@H](c2ccc(O)cc2)N1c1ccc(F)cc1 [Compound VIII, ezetimibe]
mean (S.E.) percent change from Baseline at endpoint in plasma Campesterol [1, 3]: −24.3% (2.9%) | mean (S.E.) percent change from Baseline at endpoint in plasma Sitosterol [1, 3]: −21.0% (2.8%) | percent change from Baseline at endpoint in LDL-C (mean, 95% CI) [1, 3]: −13.6% (−21.7%, −5.5%) | reduction in campesterol compared to placebo ([1]; 10 mg per day): significant (p<0.001) reduction | reduction in sitosterol compared to placebo ([1]; 10 mg per day): significant (p<0.001) reduction | tolerability ([1]; 10 mg per day): well tolerated | % of administered dose absorbed of [^3H]-sitosterol in liver (total animal liver), average ([2]; ApoE KO mice, 0.3 mg/kg/day by gavage in corn oil): 0.1863% | % of administered dose absorbed of [^3H]-sitosterol in liver (total animal liver), average ([2]; ApoE KO mice, 1 mg/kg/day by gavage in corn oil): 0.1019% | % of administered dose absorbed of [^3H]-sitosterol in liver (total animal liver), average ([2]; ApoE KO mice, 3 mg/kg/day by gavage in corn oil): 0.0772% | % of administered dose absorbed of [^3H]-sitosterol in liver (total animal liver), average ([2]; ApoE KO mice, 10 mg/kg/day by gavage in corn oil): 0.0780% | absorption and hepatic accumulation of sitosterol ([2]; C57BL/6J and Apo E KO mice, 0.3-10 mg/kg/day): dose dependently inhibit | % of administered dose absorbed of [^3H]-sitosterol in liver (total animal liver), average ([2]; C57BL/6J mice, 0.3 mg/kg/day by gavage in corn oil): 0.1093% | % of administered dose absorbed of [^3H]-sitosterol in liver (total animal liver), average ([2]; C57BL/6J mice, 1 mg/kg/day by gavage in corn oil): 0.0588% | % of administered dose absorbed of [^3H]-sitosterol in liver (total animal liver), average ([2]; C57BL/6J mice, 3 mg/kg/day by gavage in corn oil): 0.0489% | % of administered dose absorbed of [^3H]-sitosterol in liver (total animal liver), average ([2]; C57BL/6J mice, 10 mg/kg/day by gavage in corn oil): 0.0552%
